This is an account of results in article PMC8305076, “Comprehensive Evaluation of Biological Effects of Pentathiepins on Various Human Cancer Cell Lines and Insights into Their Mode of Action” (International Journal of Molecular Sciences, 2021).

Holding throughout (assay type): cell-based
One data set concerns A-427. In words: crystal violet proliferation assay. The settings on record: Homo sapiens, 96 h, normoxia, read-out: GI50 CV mean. The protocol: (§1) Distinct MTT cell viability and crystal violet cell proliferation assays were performed to assess the cytotoxicity of the compounds 1–6 on 14 human cancer cell lines. In the viability assay, cells with intact mitochondria and thus active dehydrogenases are competent to convert MTT to the corresponding insoluble formazan. The formazan can be photometrically detected after solubilization and allows for indirect conclusions about the viability of the cells as an IC50 value. In the crystal violet assay, cells are stained by the binding of the dye to the chromatin, thus allowing for a quantification of biomass that remains adherent after a treatment in comparison with a control after a specific time. Potency is defined as the growth inhibitory concentration 50% (GI50).
(§2) The antiproliferative effect of the pentathiepins on human cancer cell lines was analyzed by crystal violet assay based on the protocol of a previous publication. […] After dissolving in ethanol, the optical density was measured. Here, 1000 cells (250 for LCLC-103H) in 0.1 mL of medium were seeded per well of a 96 well plate and incubated at standard conditions for 24 h prior to treatment to allow for adhesion of the cells. A serial dilution of the test compounds was prepared in medium, covering final concentrations from 10.0 to 0.04 µM and 0.1 mL of the working solution added to each well in triplicate. Additionally, samples for each cell line were seeded and directly fixed after 24 h to measure the cell density at the beginning of treatment (t0). Fixation was performed by replacing medium with 0.1 mL of a solution containing 1% glutaraldehyde in Dulbecco’s buffer (0.2 g/L KCl, 0.1 g/L MgSO4·7 H2O, 1.55 g/L Na2HPO4·7 H2O, 0.2 g/L KH2HPO4, and 8 g/L NaCl in water) for 20 min. Plates were stored in 0.1 mL of Dulbecco’s buffer until further processing. After 96 h of treatment, the same fixation process was applied to the plates containing cells and test compounds. To stain the cells, 0.1 mL of an aqueous solution of crystal violet (0.02%) was added per well for 20 min, then discarded and the plates afterwards rinsed in clear water for 30 min. The dye was extracted in 50 µL of ethanol per well during 2 h of shaking. The plates were read at λ = 570 nm using a SpectraMax 384plus (Molecular Devices, Sunnyvale, CA, USA), and the proliferation of the treatment conditions was calculated in relation to a solvent control sample after subtracting the background value of the T0-plates. The GI50 (half-maximal growth inhibitory concentration) was calculated via nonlinear regression followed by interpolation of the dose–response graphs in Prism 7 (GraphPad, San Diego, CA, USA).

Another data set concerns A2780cis. In words: crystal violet proliferation assay. Particulars: Homo sapiens, 96 h, normoxia, read-out: GI50 CV mean. The protocol:
as §1, §2

A further data set has as its system A2780. In words: crystal violet proliferation assay. Particulars: Homo sapiens, 96 h, normoxia, read-out: GI50 CV mean. The protocol: as §1, §2
For a further data set, the system named is DanG. In words: crystal violet proliferation assay. Particulars: Homo sapiens, 96 h, normoxia, read-out: GI50 CV mean. The protocol:
as §1, §2

The test system of another data set is HAP-1.KO.GPx1. The experiment in a line: crystal violet proliferation assay. The settings on record: Homo sapiens, 96 h, normoxia, read-out: GI50 CV mean. The protocol:
as §1, §2

In the next data set the test system is HAP-1. In words: crystal violet proliferation assay. The settings on record: Homo sapiens, HAP1, 96 h, normoxia, read-out: GI50 CV mean. The protocol:
as §1, §2

The next data set relates to Kyse-70. The experiment in a line: crystal violet proliferation assay. The settings on record: Homo sapiens, 96 h, normoxia, read-out: GI50 CV mean. Here is the method: as §1, §2
A further data set has as its system LCLC-103H. The experiment in a line: crystal violet proliferation assay. The settings on record: Homo sapiens, 96 h, normoxia, read-out: GI50 CV mean. Here is the method: as §1, §2
For another data set, the system named is PATU-8902. The experiment in a line: crystal violet proliferation assay. Particulars: Homo sapiens, 96 h, normoxia, read-out: GI50 CV mean. Here is the method: as §1, §2
The test system of a further data set is RT-112. In words: crystal violet proliferation assay. Particulars: Homo sapiens, 96 h, normoxia, read-out: GI50 CV mean. Here is the method: as §1, §2
The test system of the next data set is RT-4. The experiment in a line: crystal violet proliferation assay. The settings on record: Homo sapiens, 96 h, normoxia, read-out: GI50 CV mean. The protocol: as §1, §2
For the next data set, the system named is Siso. In words: crystal violet proliferation assay. Particulars: Homo sapiens, 96 h, normoxia, read-out: GI50 CV mean. The protocol: as §1, §2
The test system of the next data set is YAPC. In words: crystal violet proliferation assay. Particulars: Homo sapiens, 96 h, normoxia, read-out: GI50 CV mean. The protocol: as §1, §2
In data set [1] the test system is panel of 14 human cancer cell lines. The experiment in a line: MTT cell viability assay, whole panel. Further details: key to Cytotoxicity: no impact (0); weak impact (+); strong impact (++). The settings on record: for Cytotoxicity: summary grade. Here is the method: as §1
In addition to performing the cell viability assay under normoxia (19% atmospheric oxygen), incubations were also conducted under hypoxic conditions, i.e., atmospheric oxygen levels of 1% during the treatment for 48 h. Hypoxia is a favorable condition of the tumor microenvironment that is connected with poor outcome. Therefore, the low oxygen condition mimics better the tumor environment. The biological effect of the pentathiepins under this condition provides insight into their dependency for oxygen, which has been postulated a key component in the proposed mechanism of action (Figure 3). Consistent with the proposed mechanism of action for five of the compounds, potency decreased under hypoxic conditions; in fact for 6, the half-maximal inhibitory concentration exceeded the highest tested concentration of 10 µM in four cell lines (Figure 6, Table S3). […] In contrast to the other compounds, in some cell lines, the cytotoxic effects of 1 were more pronounced under oxygen-reduced incubation conditions (Figure 6), indicating a tangential role of oxygen availability for this pentathiepin. Especially for the breast cancer cell line MCF-7, the cytotoxicity increased substantially, indicated by a decrease of the IC50 from >10.0 µM to about 1.0 µM.
The effect of the pentathiepins on the viability of the cell lines was assessed via an MTT assay, performed as previously described. Healthy and viable cells convert the yellow soluble 3-(4,5-dimethylthiazol-2-yl)-2,5-diphenyltetrazolium bromide to the insoluble purple corresponding formazan, which can be spectrophotometrically measured. For this assay, 5000 cells (1 250 for LCLC-103H) in 0.1 mL of medium were seeded per well of a 96-well plate and incubated at standard conditions for 24 h prior to treatment. A serial dilution of the test compounds was prepared in medium, covering final concentrations from 10.0 to 0.04 µM, and 0.1 mL of the working solution was added to each well in triplicate. After 48 h, 20 µL of a 2.5 mg/mL MTT in PBS solution was pipetted into each well and further incubated for 4 h at standard conditions. Thereafter, medium was replaced with 50 µL DMSO, and the plates were put on a shaker for 5 min and subsequently read at λ = 570 nm, with a SpectraMax 384plus (Molecular Devices, Sunnyvale, CA, USA). The cell viabilities of the treatment conditions were calculated in relation to a solvent control sample. The absolute IC50 was calculated via nonlinear regression followed by interpolation of the dose–response graphs in Prism 7 (GraphPad, San Diego, CA, USA). The IC90 was derived from the IC50 by using the slope factor of the dose–response graph with the tool QuickCalcs from GraphPad (GraphPad Software, San Diego, CA, USA). […]
(In general: Tetrazolium assays rely on reduction of a dye to a coloured formazan, in cell work by metabolically active cells.)

Where [2] appears, read: Homo sapiens, mean over the cell line panel, hypoxic, read-out: IC50 MTT-H, mean per compound.
The mark [3] stands for this setting: Homo sapiens, mean over the cell line panel, normoxic, read-out: IC50 MTT-N, mean per compound.
Setting [4] is: mean over the cell line panel, normoxic, read-out: IC50 MTT-N, mean per compound.

Read-outs that look alike come from different tables or passages of the source.

`CCOc1c2c(c3ccc(C(=O)N(CC)CC)cn13)SSSSS2` [Compound 4, 6-Ethoxy-N,N’-diethyl-[1,2,3,4,5]pentathiepino[6,7-a]indolizine-9-carboxamide]: the GI50 (usually the concentration at which growth is held to half of that of the control) came to 310 nM with A-427; 173 nM in the data set on A2780cis; 106 nM in the data set on A2780; 459 nM with DanG; 116 nM with HAP-1.KO.GPx1; 84 nM with HAP-1. The GI50 in the data set with Kyse-70 worked out at 284 nM; with LCLC-103H, 306 nM; with PATU-8902, 471 nM; in the data set with RT-112, 469 nM; in the data set on RT-4, 445 nM; with Siso, 381 nM. Moreover, the concentration for 50% growth inhibition (GI50) in the data set on YAPC is 608 nM. In addition, the IC50 is 2050 nM in [1] (setting [2]) and 1010 nM in [1] (setting [3]). In addition, the Cytotoxicity entry in data set [1] is recorded as “++”.
For the compound `CCOc1c2c(c3ccc(C(=O)N4CCN(C(=O)c5ccc(F)cc5)CC4)cn13)SSSSS2` [Compound 5, (6-Ethoxy-[1,2,3,4,5]pentathiepino[6,7-a]indolizin-9-yl)(4-(4-fluorobenzoyl)piperazinyl)methanone], the GI50 amounted to 320 nM with A-427; 142 nM in the data set on A2780cis; 92 nM in the data set on A2780; 398 nM in the data set with DanG; 144 nM in the data set with HAP-1.KO.GPx1; 120 nM in the data set with HAP-1. The GI50 came out at 181 nM with Kyse-70; 232 nM in the data set with LCLC-103H; 340 nM in the data set with PATU-8902; 384 nM with RT-112; 358 nM with RT-4; 369 nM with Siso. Moreover, in the data set with YAPC, the concentration for 50% growth inhibition (GI50) came to 411 nM. Moreover, the IC50 in data set [1] (setting [2]) is 1290 nM; in data set [1] (setting [3]) it was 839 nM. In addition, the Cytotoxicity entry in [1] is reported as “++”.
For `CCOc1c2c(c3cnc4[nH]c(-c5ccc(OC)cc5)cc4n13)SSSSS2` [Compound 1, 11-Ethoxy-2-(4-methoxyphenyl)-3H-[1,2,3,4,5]pentathiepino[6′,7′:3,4]pyrrolo[1,2-a]pyrrolo[2,3-e]pyrazine], the GI50 in the data set on A-427 stood at 306 nM; with A2780cis, 228 nM; in the data set with A2780 it was 236 nM; in the data set on DanG it was 340 nM; in the data set on HAP-1.KO.GPx1, 313 nM; with HAP-1 it was 339 nM. In addition, the 50% growth inhibitory concentration (GI50) in the data set on Kyse-70 was found to be 264 nM; in the data set with LCLC-103H it was 441 nM; with PATU-8902, 480 nM; in the data set with RT-112 it was 465 nM; in the data set with RT-4, 373 nM; with Siso it was 256 nM. Besides, the GI50 in the data set on YAPC came to 405 nM. In addition, the IC50 in [1] (setting [2]) was 487 nM; in data set [1] (setting [3]), 720 nM; in [1] (setting [4]), 716 nM. Moreover, in [1], the Cytotoxicity entry is recorded as “++”.
As to `CCOc1c2c(c3ccc(C(=O)N4CCOCC4)cn13)SSSSS2` [Compound 3, (6-Ethoxy-[1,2,3,4,5]pentathiepino[6,7-a]indolizin-9-yl)(morpholino)methanone], the GI50 with A-427 came out at 142 nM; with A2780cis, 88 nM; in the data set with A2780 it was 55 nM; in the data set on DanG, 382 nM; in the data set on HAP-1.KO.GPx1, 68 nM; in the data set with HAP-1 it was 64 nM. Besides, the GI50 in the data set on Kyse-70 turned out to be 142 nM; with LCLC-103H, 128 nM; with PATU-8902, 257 nM; with RT-112, 246 nM; in the data set with RT-4, 193 nM; in the data set with Siso it was 166 nM. In addition, in the data set with YAPC, the GI50 came out at 350 nM. Also, the IC50 amounted to 1720 nM in data set [1] (setting [2]) and 789 nM in data set [1] (setting [3]). The Cytotoxicity entry in data set [1] was “++”.
Turning to `CCOc1c2c(c3ccc(C(=O)N4CCN(S(=O)(=O)c5ccc(C)cc5)CC4)cn13)SSSSS2` [Compound 6, (6-Ethoxy-[1,2,3,4,5]pentathiepino[6,7-a]indolizin-9-yl)(4-tosylpiperazinyl)methanone], the GI50 in the data set with A-427 was 352 nM; with A2780cis, 512 nM; in the data set with A2780, 538 nM; in the data set on DanG, 711 nM; in the data set on HAP-1.KO.GPx1 it was 524 nM; in the data set with HAP-1, 507 nM. The GI50 was 481 nM in the data set on Kyse-70; 646 nM in the data set on LCLC-103H; 952 nM with PATU-8902; 1100 nM in the data set with RT-112; 835 nM in the data set with RT-4; 597 nM with Siso. Also, the GI50 in the data set on YAPC is 1170 nM. In addition, the IC50 in data set [1] (Homo sapiens, hypoxic conditions, in four cell lines, exceeded highest tested concentration, read-out: half-maximal inhibitory concentration) was more than 10000 nM; in data set [1] (setting [2]), 2460 nM; in [1] (setting [3]) it was 2360 nM; in data set [1] (setting [4]) it was 2360 nM. For the same compound, in [1], the Cytotoxicity result is reported as “+”.
Regarding `CCOc1c2c(c3ccc(C(=O)N4CCCCC4)cn13)SSSSS2` [Compound 2, (6-Ethoxy-[1,2,3,4,5]pentathiepino[6,7-a]indolizin-9-yl)(piperidinyl)methanone], the GI50 in the data set on A-427 came to 401 nM; in the data set with A2780cis it was 234 nM; in the data set on A2780, 164 nM; in the data set on DanG, 644 nM; in the data set on HAP-1.KO.GPx1, 173 nM; in the data set on HAP-1, 161 nM. The GI50 with Kyse-70 came to 409 nM; in the data set with LCLC-103H, 552 nM; in the data set with PATU-8902, 659 nM; in the data set with RT-112, 559 nM; in the data set with RT-4, 1520 nM; in the data set with Siso, 423 nM. The GI50 with YAPC amounted to 628 nM. The IC50 in data set [1] (setting [2]) was 2190 nM; in data set [1] (setting [3]), 1380 nM. In addition, the Cytotoxicity result in data set [1] is reported as “+”.
